In patent US11000033B2, “Ketone or oxime compound, and herbicide” (NISSAN CHEMICAL CORPORATION, priority 2014, dated 2021):

Columns and labels:
Format in all cases: in vivo
[1] = system: Echinochloa crus-galli var. crus-galli; assay: Test Example 5: herbicidal effect by foliage application, plastic box (symbol H); details: 3 weeks after application
Method in brief: (§1)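 Seeds were sown in sterilized diluvial soil, covered with about 1.5 cm of soil and grown 14 days in a greenhouse at 25° C. to 30° C. An emulsifiable formulation diluted in water to a set rate was sprayed over foliage, and injury was scored 3 weeks later.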

Avena fatua = assay: Test Example 4: herbicidal effect by soil treatment (symbol I); details: for I (Avena fatua) herbicidal effect grade: application herbicide amount 320 g/ha
Text: (§2) Herbicidal Effect Test by Soil Treatment
(§3) Sterilized diluvial soil was placed in a plastic box having a length of 21 cm, a width of 13 cm, and a depth of 7 cm. Each of the seeds of Digitaria ciliaris, Setaria viridis, Echinochloa crus-galli var. crus-galli, Avena fatua, Alopecurus myosuroides, Lolium multiflorum Lam., Apera spica-venti, Abutilon theophrasti, Amaranthus retroflexus, Chenopodium album, Stellaria media, Galium spurium, Veronica persica, corn, soybean, rice, wheat, beet, and rapeseed was sowed in a spot-like manner and was covered with the soil of a thickness of about 1.5 cm. Subsequently, the emulsion agent of the compound present invention prepared in accordance with Formulation Example 2 was diluted with water so as to be a predetermined herbicide amount and the diluted emulsion agent was uniformly applied to the surface of the soil with a small-size spray. The plastic box was placed in a greenhouse of 25° C. to 30° C. to grow plant. 3 weeks later from the herbicide application, the effect to each plant was investigated in accordance with the criteria of Test Example 1.

Scirpus juncoides = assay: Test Example 1: herbicidal activity, application before weed generation in submerged conditions (symbol B)
Method in brief: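 Scores run 0 to 5 by herbicidal ratio, with 5 meaning 90% or more and 0 meaning 5% or lower, read 3 weeks after treatment. Compound was applied as a diluted emulsion to the water surface of submerged alluvial-soil pots on the day weed seeds were sown.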

Chenopodium album = assay: Test Example 5: herbicidal effect by foliage application, plastic box (symbol O); details: 3 weeks after application
Method in brief: as §1

Alopecurus myosuroides [2] = assay: Test Example 4: herbicidal effect by soil treatment (symbol J); details: for J (Alopecurus myosuroides) herbicidal effect grade: application herbicide amount 320 g/ha
Text: as §2, §3

rice plant = assay: Test Example 5: effect on crop by foliage application, plastic box (symbol b); details: 3 weeks after application
Method in brief: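 Diluvial soil, sterilized and boxed (21 × 13 × 7 cm), received spot-sown seed covered by about 1.5 cm soil; plants were then greenhouse-grown at 25–30° C.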

Alopecurus myosuroides [3] = assay: Test Example 5: herbicidal effect by foliage application, plastic box (symbol J); details: 3 weeks after application
Method in brief: as §1

Monochoria vaginalis = assay: Test Example 2: herbicidal activity, application during weed generation in submerged conditions (symbol C); details: Table 23, grade 0-5 by criteria of Test Example 1
Method in brief: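 Flooded-soil post-emergence test: emulsion of compound, water-diluted to target rate, applied to paddy water surface at 1–2 leaf stage of mixed-sown weeds (alluvial soil, 4 cm water, 25–30° C. greenhouse); visual rating 3 weeks after application.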

rice = assay: Test Example 4: effect on crop by soil treatment (symbol b); details: for b (directly sowed rice plant) effect on crop grade: application herbicide amount 320 g/ha
Text: as §2
(§4) Sterilized diluvial soil was placed in a plastic box having a length of 21 cm, a width of 13 cm, and a depth of 7 cm. Each of the seeds of Digitaria ciliaris, Setaria viridis, Echinochloa crus-galli var. crus-galli, Avena fatua, Alopecurus myosuroides, Lolium multiflorum Lam., Apera spica-venti, Abutilon theophrasti, Amaranthus retroflexus, Chenopodium album, Stellaria media, Galium spurium, Veronica persica, corn, soybean, rice, wheat, beet, and rapeseed was sowed in a spot-like manner and was covered with the soil of a thickness of about 1.5 cm. […] The plastic box was placed in a greenhouse of 25° C. to 30° C. to grow plant.

wheat = assay: Test Example 4: effect on crop by soil treatment (symbol e); details: for e (wheat) effect on crop grade: application herbicide amount 320 g/ha
Text: as §2, §4

Digitaria ciliaris = assay: Test Example 5: herbicidal effect by foliage application, plastic box (symbol F); details: 3 weeks after application
Method in brief: as §1

Abutilon theophrasti = assay: Test Example 4: herbicidal effect by soil treatment (symbol M); details: for M (Abutilon theophrasti) herbicidal effect grade: application herbicide amount 320 g/ha
Text: as §2, §3

soybean = assay: Test Example 4: effect on crop by soil treatment (symbol d); details: for d (soybean) effect on crop grade: application herbicide amount 320 g/ha
Text: as §2, §4

Apera spica-venti = assay: Test Example 4: herbicidal effect by soil treatment (symbol L); details: for L (Apera spica-venti) herbicidal effect grade: application herbicide amount 320 g/ha
Text: as §2, §3

Setaria viridis = assay: Test Example 4: herbicidal effect by soil treatment (symbol G); details: for G (Setaria viridis) herbicidal effect grade: application herbicide amount 320 g/ha
Text: as §2, §3

Stellaria media = assay: Test Example 4: herbicidal effect by soil treatment (symbol P); details: for P (Stellaria media) herbicidal effect grade: application herbicide amount 320 g/ha
Text: as §2, §3

[4] = application herbicide amount 320 g/ha
[5] = application herbicide amount 269 g/ha

Row | SMILES | H: Echinochloa crus-galli var. crus-galli, herbicidal effect grade ([1]; 320 g/ha) | I (Avena fatua) herbicidal effect grade (Avena fatua) | Herbicidal effect grade, B: Scirpus juncoides (Scirpus juncoides; [4]) | O: Chenopodium album, herbicidal effect grade (Chenopodium album; 320 g/ha) | J (Alopecurus myosuroides) herbicidal effect grade (Alopecurus myosuroides [2]) | b: directly sowed rice plant, effect on crop grade (rice plant; 320 g/ha) | J: Alopecurus myosuroides, herbicidal effect grade (Alopecurus myosuroides [3]; 320 g/ha) | Herbicidal effect grade, C: Monochoria vaginalis (Monochoria vaginalis; [4]) | b (directly sowed rice plant) effect on crop grade (rice) | e (wheat) effect on crop grade (wheat) | F: Digitaria ciliaris, herbicidal effect grade (Digitaria ciliaris; 320 g/ha) | M (Abutilon theophrasti) herbicidal effect grade (Abutilon theophrasti) | d (soybean) effect on crop grade (soybean) | L (Apera spica-venti) herbicidal effect grade (Apera spica-venti) | G (Setaria viridis) herbicidal effect grade (Setaria viridis) | P (Stellaria media) herbicidal effect grade (Stellaria media) | other results
1 | C=CCOC1=C(c2c(C)cc(C)cc2C)C(=O)C(CC(C)=NOC)C1 (stereo not drawn) [1-007] | 0 (Herbicidal ratio of 5% or lower (almost no effect)) | 0 (Herbicidal ratio of 5% or lower (almost no effect)) | 0 (Herbicidal ratio of 5% or lower (almost no effect)) | 0 (Herbicidal ratio of 5% or lower (almost no effect)) | 0 (Herbicidal ratio of 5% or lower (almost no effect)) | 0 (Herbicidal ratio of 5% or lower (almost no effect)) | 3 (Herbicidal ratio of 40% or higher and lower than 70%) | 0 (Herbicidal ratio of 5% or lower (almost no effect)) | 0 (Herbicidal ratio of 5% or lower (almost no effect)) | 0 (Herbicidal ratio of 5% or lower (almost no effect)) | 0 (Herbicidal ratio of 5% or lower (almost no effect)) | 0 (Herbicidal ratio of 5% or lower (almost no effect)) | 0 (Herbicidal ratio of 5% or lower (almost no effect)) | 3 (Herbicidal ratio of 40% or higher and lower than 70%) | 0 (Herbicidal ratio of 5% or lower (almost no effect)) |  | 
2 | CC(=O)C(C)C1CC(O)=C(c2c(C)cc(C)cc2C)C1=O (stereo not drawn) [2-005] |  |  |  |  |  |  |  |  |  |  |  |  |  |  |  |  | H: Echinochloa crus-galli var. crus-galli, herbicidal effect grade ([1]; 269 g/ha): 5 (Herbicidal ratio of 90% or more (almost completely withered)); I: Avena fatua, herbicidal effect grade (Avena fatua; [5]): 0 (Herbicidal ratio of 5% or lower (almost no effect)); Herbicidal effect grade, B: Scirpus juncoides (Scirpus juncoides; [5]): 0 (Herbicidal ratio of 5% or lower (almost no effect)); O: Chenopodium album, herbicidal effect grade (Chenopodium album; 269 g/ha): 0 (Herbicidal ratio of 5% or lower (almost no effect)); J: Alopecurus myosuroides, herbicidal effect grade (Alopecurus myosuroides [2]; [5]): 4 (Herbicidal ratio of 70% or higher and lower than 90%); b: directly sowed rice plant, effect on crop grade (rice plant; 269 g/ha): 5 (Herbicidal ratio of 90% or more (almost completely withered)); P: Stellaria media, herbicidal effect grade (Stellaria media; [5]): 0 (Herbicidal ratio of 5% or lower (almost no effect)); J: Alopecurus myosuroides, herbicidal effect grade (Alopecurus myosuroides [3]; 269 g/ha): 5 (Herbicidal ratio of 90% or more (almost completely withered)); Herbicidal effect grade, C: Monochoria vaginalis (Monochoria vaginalis; [5]): 0 (Herbicidal ratio of 5% or lower (almost no effect)); b: directly sowed rice plant, effect on crop grade (rice; [5]): 5 (Herbicidal ratio of 90% or more (almost completely withered)); e: wheat, effect on crop grade (wheat; [5]): 0 (Herbicidal ratio of 5% or lower (almost no effect)); F: Digitaria ciliaris, herbicidal effect grade (Digitaria ciliaris; 269 g/ha): 3 (Herbicidal ratio of 40% or higher and lower than 70%); M: Abutilon theophrasti, herbicidal effect grade (Abutilon theophrasti; [5]): 0 (Herbicidal ratio of 5% or lower (almost no effect)); d: soybean, effect on crop grade (soybean; [5]): 0 (Herbicidal ratio of 5% or lower (almost no effect)); L: Apera spica-venti, herbicidal effect grade (Apera spica-venti; [5]): 1 (Herbicidal ratio of 5% or higher and lower than 20%); G: Setaria viridis, herbicidal effect grade (Setaria viridis; [5]): 4 (Herbicidal ratio of 70% or higher and lower than 90%)
3 | CON=C(C)CC1CC(OC(=O)C(C)(C)C)=C(c2c(C)cc(C)cc2C)C1=O (stereo not drawn) [1-004, 2-mesityl-4-{2-(methoxyimino)propyl}-3-oxocyclopent-1-en-1-yl pivalate] | 5 (Herbicidal ratio of 90% or more (almost completely withered)) | 5 (Herbicidal ratio of 90% or more (almost completely withered)) | 5 (Herbicidal ratio of 90% or more (almost completely withered)) | 3 (Herbicidal ratio of 40% or higher and lower than 70%) | 5 (Herbicidal ratio of 90% or more (almost completely withered)) | 5 (Herbicidal ratio of 90% or more (almost completely withered)) | 5 (Herbicidal ratio of 90% or more (almost completely withered)) | 4 (Herbicidal ratio of 70% or higher and lower than 90%) | 5 (Herbicidal ratio of 90% or more (almost completely withered)) | 3 (Herbicidal ratio of 40% or higher and lower than 70%) | 5 (Herbicidal ratio of 90% or more (almost completely withered)) | 5 (Herbicidal ratio of 90% or more (almost completely withered)) | 3 (Herbicidal ratio of 40% or higher and lower than 70%) | 5 (Herbicidal ratio of 90% or more (almost completely withered)) | 5 (Herbicidal ratio of 90% or more (almost completely withered)) | 0 (Herbicidal ratio of 5% or lower (almost no effect)) | 
4 | CON=C(C)CC1CC(OC(C)=O)=C(c2c(C)cc(C)cc2C)C1=O (stereo not drawn) [1-005] | 5 (Herbicidal ratio of 90% or more (almost completely withered)) | 5 (Herbicidal ratio of 90% or more (almost completely withered)) | 5 (Herbicidal ratio of 90% or more (almost completely withered)) | 3 (Herbicidal ratio of 40% or higher and lower than 70%) | 5 (Herbicidal ratio of 90% or more (almost completely withered)) | 5 (Herbicidal ratio of 90% or more (almost completely withered)) | 5 (Herbicidal ratio of 90% or more (almost completely withered)) | 4 (Herbicidal ratio of 70% or higher and lower than 90%) | 5 (Herbicidal ratio of 90% or more (almost completely withered)) | 4 (Herbicidal ratio of 70% or higher and lower than 90%) | 5 (Herbicidal ratio of 90% or more (almost completely withered)) | 5 (Herbicidal ratio of 90% or more (almost completely withered)) | 2 (Herbicidal ratio of 20% or higher and lower than 40%) | 5 (Herbicidal ratio of 90% or more (almost completely withered)) | 3 (Herbicidal ratio of 40% or higher and lower than 70%) | 0 (Herbicidal ratio of 5% or lower (almost no effect)) | 
